According to PubChem BioAssay (NCI):
“And” between values parts separate entries of the source, which are not always exact repeats. Equal values may be shown once.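 Briefly, cells in 96-well plates were exposed to five compound concentrations for 48 h, and endpoints were estimated by linear interpolation. Abbreviation: GI50, concentration required for 50% inhibition of growth. At the TGI there is no net growth.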

Experiments:
Test in all cases: DTP human tumour cell line panel, 48 h
[1] = system: HCC-2998 colon
[2] = system: SW-620 colon
[3] = system: EKVX NSCLC
[4] = system: MDA-MB-435
[5] = system: OVCAR-8 ovarian
[6] = system: PC-3 prostate
[7] = system: K-562 leukemia
[8] = system: HOP-62 NSCLC
[9] = system: MALME-3M melanoma
[10] = system: SF-539 CNS

| SMILES | TGI [1] [µM] | TGI [2] [µM] | TGI [3] | TGI [4] | TGI [5] [µM] | TGI [6] | TGI [7] [µM] | TGI [8] | TGI [9] [µM] | TGI [10] | GI50 [1] [µM] | GI50 [3] | GI50 [4] [µM] | GI50 [6] | GI50 [7] | GI50 [8] |
| --- | --- | --- | --- | --- | --- | --- | --- | --- | --- | --- | --- | --- | --- | --- | --- | --- |
| Cc1nc(-c2cc3cc(Cl)ccc3oc2=O)cc2c1c(=O)oc1ccc(Cl)cc12 | > 100 | > 100 | > 100 µM | > 100 µM | > 100 | > 100 µM | > 100 | > 100 µM | – | – | – | – | – | – | – | – |
| c1ccc(-c2nnn(CCN3CCCCC3)n2)cc1 | > 100 | > 100 | > 100 µM | > 100 µM | > 100 | > 100 µM | > 100 | > 100 µM | > 100 | – | – | – | – | – | – | – |
| CS(=O)(=O)NC12CCC(c3ccccc31)c1ccccc12 | – | > 100 | > 100 µM | > 100 µM | – | > 100 µM | > 100 | > 100 µM | > 100 | > 100 µM | – | – | – | – | – | – |
| COC(=O)[C@@H]1CN(C(=O)c2ccccc2)C(=O)N1C(=O)OCc1ccccc1 | > 100 | > 100 | > 100 µM | > 100 µM | > 100 | – | > 100 | > 100 µM | > 100 | > 100 µM | – | – | – | – | – | – |
| CSc1nc(NC(C)C)c2c(n1)Sc1nc3ccccc3n1C2O (stereo not given) | > 100 | 65.3 | > 100 µM | 5.02 µM | > 100 | > 100 µM | > 100 | > 100 µM | 49.6 | – | – | – | – | – | – | – |
| C#CCC1(C(=O)OCC)C(=O)c2ccccc2N(C)C1=O (stereo not given) | – | > 100 | > 100 µM | – | > 100 | – | > 100 | – | > 100 | > 100 µM | – | – | – | – | – | – |
| CC(=O)/C(=C\c1ccc(Cl)c(Cl)c1)C(=O)C(C)CN(C)C (stereo not given) | 9.66 | 9.01 | 27.8 µM | 12.3 µM | 6.45 | 17 µM | – | 41.1 µM | 21.9 | 13.4 µM | – | – | – | – | – | – |
| Cc1cc2c(c(=O)n1C)SCC2 | > 100 | > 100 | – | > 100 µM | > 100 | > 100 µM | > 100 | > 100 µM | > 100 | – | – | – | – | – | – | – |
| Nc1ncnc2c1ncn2Cc1cccc(CCl)c1 | – | 29.9 | 37.1 µM | 44.6 µM | 42.9 | 35.5 µM | > 100 | 30.5 µM | 37.7 | 33.4 µM | – | – | – | – | – | – |
| CSc1ccc(/C=C2\N=C(c3ccccc3)N(/N=C/c3cc4cc(C)ccc4nc3Cl)C2=O)cc1 | 35.5 | > 100 | > 100 µM | 26.1 µM | 42.4 | 38 µM | 57.2 | > 100 µM | – | 43.3 µM | – | – | – | – | – | – |
| CCOC(=O)c1cn(C)c(=S)n2c1nc1ccccc12 | > 100 | > 100 | > 100 µM | > 100 µM | > 100 | > 100 µM | > 100 | > 100 µM | – | > 100 µM | – | – | – | – | – | – |
| CCN(CC)CCN(C(=O)C(C)(C)C)c1ccccc1N | – | > 100 | > 100 µM | – | > 100 | > 100 µM | > 100 | > 100 µM | > 100 | > 100 µM | – | – | – | – | – | – |
| CC1(C2CCC3(C)OC3C2)CO1 (stereo not given) | > 100 | > 100 | > 100 µM | – | > 100 | – | > 100 | > 100 µM | > 100 | > 100 µM | – | – | – | – | – | – |
| O=C(CC1Sc2ccccc2NC1=O)Nc1ccc(Cl)cc1 (stereo not given) | > 100 | > 100 | > 100 µM | – | > 100 | – | > 100 | > 100 µM | > 100 | > 100 µM | – | – | – | – | – | – |
| CCOC(=O)C1(C(F)(F)F)N=C(CC)OC(N2CCOCC2)=N1 (stereo not given) | > 100 | > 100 | > 100 µM | > 100 µM | > 100 | > 100 µM | > 100 | – | – | > 100 µM | – | – | – | – | – | – |
| O=C1C=CC(=O)c2c(O)c(N3CCN(CCOCCO)CC3)c(Cl)c(O)c21 | – | – | 4.4 µM [middle of 4 runs] | 0.907 µM and 0.486 µM | – | 3.23 µM [middle of 4 runs] | > 100 | 3.84 µM and 3.6 µM and 6.67 µM | – | 3.31 µM [middle of 4 runs] | 2.27 | 1.9 µM [middle of 4 runs] | 0.197 | 1.67 µM [middle of 4 runs] | 0.265 µM and 0.0439 µM | 2.07 µM and 0.983 µM and 2.64 µM |
| O=C1c2ccccc2C(=O)N1c1nc(-c2ccc(Cl)cc2)cc(N2N=C(c3ccc(Br)cc3)CC2c2ccccc2)n1 (stereo not given) | 0.966 | – | 5.99 µM | 2.62 µM | > 24.1 | > 27.5 µM | > 100 | > 23 µM | > 60.6 | 4.41 µM | – | – | – | – | – | – |
| Cn1c2ccccc2n2c3ncccc3c(=S)c(C#N)c12 | > 100 | > 100 | > 100 µM | > 100 µM | > 100 | > 100 µM | > 100 | > 100 µM | > 100 | – | – | – | – | – | – | – |
| C/C(=N\Nc1nc2ccccc2[nH]1)c1cc2ccccc2cn1 | 3.46 | 1.65 | 1.35 µM | 1.1 µM | 1.24 | – | > 100 | – | 0.664 | 0.764 µM | – | – | – | – | – | – |
| CN(C)C(=S)Oc1ccc2ccc(=O)oc2c1 | > 100 | > 100 | > 100 µM | > 100 µM | > 100 | > 100 µM | – | > 100 µM | > 100 | > 100 µM | – | – | – | – | – | – |
| N/C(=N\Nc1ccc(S(N)(=O)=O)cc1)c1cnccn1 | > 100 | > 100 | > 100 µM | > 100 µM | > 100 | > 100 µM | > 100 | > 100 µM | > 100 | – | – | – | – | – | – | – |
| COC(=O)C1=C(O)C(C(=O)OC)[C@]2(O)[C@H](C(=O)OC)[C@H]1C[C@@H](c1ccc([N+](=O)[O-])cc1)[C@H]2C(=O)OC (stereo not given in full) | – | 58.4 | > 100 µM | > 100 µM | 41.4 | 51.9 µM | > 100 | > 100 µM | 17.5 | > 100 µM | – | – | – | – | – | – |
